Assay results: ChEMBL document CHEMBL1201862, “PubChem BioAssay data set” (2004)
Counter-ions that a name gives are not always drawn. Active and inactive are the calls of the source.

How the values were obtained:
[1] = target: T1, Polyadenylate-binding protein 1 (Homo sapiens, UniProt P11940); assay: MLLE binding blockers, Cy5 peptide tracer – biochemical, fluorescence polarization, Cy5-PAM2 peptide, secondary, miRNA deadenylation inhibitor project, dose response (AID 602260); format: functional; details: read-out: IC50_Mean
[2] = target: T1, Polyadenylate-binding protein 1; assay: MLLE domain peptide-binding blockers, IC50 – biochemical, fluorescence polarization, FITC-PAM2 peptide, dose response (AID 602259); format: functional; details: read-out: IC50_Mean
Fatty acid synthase [3] = target: T2, Fatty acid synthase (Homo sapiens, UniProt P49327); assay: inhibition of human FAS-TE enzyme activity – biochemical, endpoint fluorescence intensity, uHTS hits, dose response (AID 624327); format: functional;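 note: fluorescence from hydrolysis of an O-methyl fluorescein acyl ester substrate by the enzyme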
Fatty acid synthase [4] = target: T2, Fatty acid synthase; assay: inhibition of human FAS-TE enzyme activity – biochemical, kinetic fluorescence intensity, dose response (AID 624326); format: functional;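 note: rate of fluorescence rise from hydrolysis of a fluorogenic O-methyl fluorescein ester substrate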
[5] = HIV-1 AD8 envelope cell-cell fusion blockers – cherry-pick, dose response (AID 652062); format: functional, cell-based;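 note: luciferase signal from cell-cell fusion driven by HIV-1 clade B AD8 Env; potency is for inhibitors of fusion seen as a drop in luminescence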
cells [6] = format: functional, cell-based
cells [7] = format: functional, cell-based; remark: listed apart in the source
[8] = target: T3, Corticotropin-releasing factor receptor 2/Corticotropin-releasing factor-binding protein (Homo sapiens, UniProt P24387+Q13324); assay: Dose Response confirmation of uHTS hits for small molecule antagonists of the CRF-binding protein and CRF-R2 receptor complex.; format: functional; details: read-out: IC50_Mean
T3 sequence (Q13324 whole entry): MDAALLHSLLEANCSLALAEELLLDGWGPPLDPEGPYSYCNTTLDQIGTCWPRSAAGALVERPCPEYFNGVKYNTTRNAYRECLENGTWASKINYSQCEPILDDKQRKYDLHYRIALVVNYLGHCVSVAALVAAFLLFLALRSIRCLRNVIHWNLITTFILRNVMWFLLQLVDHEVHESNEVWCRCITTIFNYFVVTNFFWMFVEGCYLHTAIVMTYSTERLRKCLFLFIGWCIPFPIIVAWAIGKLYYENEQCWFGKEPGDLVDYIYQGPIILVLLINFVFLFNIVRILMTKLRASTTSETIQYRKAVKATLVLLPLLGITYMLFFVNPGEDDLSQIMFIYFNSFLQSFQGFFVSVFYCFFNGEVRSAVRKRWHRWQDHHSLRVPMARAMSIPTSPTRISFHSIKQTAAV
T3 sequence (P24387 whole entry): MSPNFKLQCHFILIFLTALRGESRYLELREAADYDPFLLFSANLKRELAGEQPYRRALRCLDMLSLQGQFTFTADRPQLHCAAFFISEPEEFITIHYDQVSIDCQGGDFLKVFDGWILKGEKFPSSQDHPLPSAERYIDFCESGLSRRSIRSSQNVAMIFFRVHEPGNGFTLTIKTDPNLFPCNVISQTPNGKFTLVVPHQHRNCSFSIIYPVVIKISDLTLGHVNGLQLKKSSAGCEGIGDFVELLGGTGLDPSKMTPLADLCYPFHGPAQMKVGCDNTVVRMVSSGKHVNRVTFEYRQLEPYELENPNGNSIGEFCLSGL

[9] = target: T3, Corticotropin-releasing factor receptor 2/Corticotropin-releasing factor-binding protein; assay: activators of CRF receptor 2 with binding protein – uHTS hits, confirmation (AID 602473); format: functional; details: read-out: EC50_Mean
Genome polyprotein = Genome polyprotein (dengue virus type 2, UniProt P29990); assay: flavivirus cap methylation enzyme inhibition – biochemical, confirmation dose response, primary screen (AID 588689); format: functional
[10] = reduction of Shn3 3'UTR-driven luciferase in osteoblasts – cell-based, Clone20 osteoblasts, firefly luciferase, cherry-picked, dose response (AID 624132); format: functional;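 note: firefly luciferase luminescence from reporter carrying the Shn3 3'UTR in osteoblasts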
[11] = non-specific 3'UTR reporter inhibition in Clone20-Shn3RL – cell-based, Renilla luciferase, cherry-picked, counter-screen for Shn3 inhibitor project, dose response (AID 624133); format: functional
Paired box protein Pax-8 = Paired box protein Pax-8 (Homo sapiens, UniProt Q06710); assay: PAX8 transcriptional activity inhibition in RMG-I – RMG-I cells, luciferase, cherry-pick, dose response (AID 687027); format: functional, cell-based;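 note: luciferase reporter driven by Pax8 target thyroperoxidase promoter measured by SteadyGlo luminescence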
[12] = OVCAR-3 cell viability loss – plate reader, dry powder samples, PAX8 inhibitor project, dose response (AID 743044); format: functional, cell-based
P388/ADR = assay: cells; format: functional; details: Mus musculus
SN12K1 = assay: cells; format: functional; details: Homo sapiens
P388 = assay: cells; format: functional; details: Mus musculus
[13] = Luminescence Cell-Based Dose Confirmation HTS to Identify Activators of 5'UTR Stem-Loop Driven Alpha-Synuclein mRNA Translation in H4 Neuroglioblastoma Cells. [Related pubchem assays: 1829 (Project Summary), 1814 (Primary HTS)]; format: functional
[14] = Luminescence Cell-Based Dose Response HTS to Identify Activators of Luciferase Translation or Activity in H4 […] Cells. [Related pubchem assays: 1829 (Project Summary), 1814 (Primary HTS)]; format: functional
H4 = assay: Luminescence Cell-Based Dose Response HTS to Identify Activators of 5'UTR Stem-Loop Driven Prion Protein mRNA Translation in H4 Neuroglioblastoma Cells. [Related pubchem assays: 1829 (Project Summary), 1814 (Primary HTS)]; format: functional; details: Homo sapiens
[15] = target: T4, Carboxy-terminal domain RNA polymerase II polypeptide A small phosphatase 1 (Homo sapiens, UniProt Q9GZU7); assay: CTDSP1 inhibitors, concentration-response, biochemical, absorbance readout, ultra-high-throughput screen actives (AID 540297); format: functional
T4 sequence (Q9GZU7 whole entry): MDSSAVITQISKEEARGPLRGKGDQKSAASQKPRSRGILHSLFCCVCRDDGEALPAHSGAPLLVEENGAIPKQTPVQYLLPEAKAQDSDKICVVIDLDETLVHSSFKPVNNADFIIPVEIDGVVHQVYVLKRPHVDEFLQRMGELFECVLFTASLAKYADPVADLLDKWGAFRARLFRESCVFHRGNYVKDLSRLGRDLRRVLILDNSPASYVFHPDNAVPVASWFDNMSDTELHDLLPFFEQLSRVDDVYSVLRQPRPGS

T1 sequence (P11940 whole entry, the tested form may be a part): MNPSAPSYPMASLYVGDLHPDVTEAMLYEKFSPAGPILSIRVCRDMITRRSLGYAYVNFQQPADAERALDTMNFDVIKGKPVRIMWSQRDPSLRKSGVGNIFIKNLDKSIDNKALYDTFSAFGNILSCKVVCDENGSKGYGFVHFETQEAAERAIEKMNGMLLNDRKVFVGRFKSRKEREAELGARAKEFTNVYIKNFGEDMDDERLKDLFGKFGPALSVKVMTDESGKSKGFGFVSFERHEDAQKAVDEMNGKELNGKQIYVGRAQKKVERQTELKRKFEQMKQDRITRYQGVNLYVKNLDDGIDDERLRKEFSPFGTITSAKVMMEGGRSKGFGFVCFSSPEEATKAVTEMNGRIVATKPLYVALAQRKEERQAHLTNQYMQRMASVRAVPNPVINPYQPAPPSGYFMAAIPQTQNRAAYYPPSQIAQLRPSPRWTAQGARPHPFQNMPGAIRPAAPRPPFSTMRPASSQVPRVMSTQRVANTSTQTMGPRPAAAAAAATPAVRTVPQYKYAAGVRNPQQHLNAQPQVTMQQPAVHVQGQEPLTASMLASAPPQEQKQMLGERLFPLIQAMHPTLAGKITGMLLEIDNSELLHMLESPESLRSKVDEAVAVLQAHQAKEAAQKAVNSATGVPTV
T2 sequence (P49327 whole entry): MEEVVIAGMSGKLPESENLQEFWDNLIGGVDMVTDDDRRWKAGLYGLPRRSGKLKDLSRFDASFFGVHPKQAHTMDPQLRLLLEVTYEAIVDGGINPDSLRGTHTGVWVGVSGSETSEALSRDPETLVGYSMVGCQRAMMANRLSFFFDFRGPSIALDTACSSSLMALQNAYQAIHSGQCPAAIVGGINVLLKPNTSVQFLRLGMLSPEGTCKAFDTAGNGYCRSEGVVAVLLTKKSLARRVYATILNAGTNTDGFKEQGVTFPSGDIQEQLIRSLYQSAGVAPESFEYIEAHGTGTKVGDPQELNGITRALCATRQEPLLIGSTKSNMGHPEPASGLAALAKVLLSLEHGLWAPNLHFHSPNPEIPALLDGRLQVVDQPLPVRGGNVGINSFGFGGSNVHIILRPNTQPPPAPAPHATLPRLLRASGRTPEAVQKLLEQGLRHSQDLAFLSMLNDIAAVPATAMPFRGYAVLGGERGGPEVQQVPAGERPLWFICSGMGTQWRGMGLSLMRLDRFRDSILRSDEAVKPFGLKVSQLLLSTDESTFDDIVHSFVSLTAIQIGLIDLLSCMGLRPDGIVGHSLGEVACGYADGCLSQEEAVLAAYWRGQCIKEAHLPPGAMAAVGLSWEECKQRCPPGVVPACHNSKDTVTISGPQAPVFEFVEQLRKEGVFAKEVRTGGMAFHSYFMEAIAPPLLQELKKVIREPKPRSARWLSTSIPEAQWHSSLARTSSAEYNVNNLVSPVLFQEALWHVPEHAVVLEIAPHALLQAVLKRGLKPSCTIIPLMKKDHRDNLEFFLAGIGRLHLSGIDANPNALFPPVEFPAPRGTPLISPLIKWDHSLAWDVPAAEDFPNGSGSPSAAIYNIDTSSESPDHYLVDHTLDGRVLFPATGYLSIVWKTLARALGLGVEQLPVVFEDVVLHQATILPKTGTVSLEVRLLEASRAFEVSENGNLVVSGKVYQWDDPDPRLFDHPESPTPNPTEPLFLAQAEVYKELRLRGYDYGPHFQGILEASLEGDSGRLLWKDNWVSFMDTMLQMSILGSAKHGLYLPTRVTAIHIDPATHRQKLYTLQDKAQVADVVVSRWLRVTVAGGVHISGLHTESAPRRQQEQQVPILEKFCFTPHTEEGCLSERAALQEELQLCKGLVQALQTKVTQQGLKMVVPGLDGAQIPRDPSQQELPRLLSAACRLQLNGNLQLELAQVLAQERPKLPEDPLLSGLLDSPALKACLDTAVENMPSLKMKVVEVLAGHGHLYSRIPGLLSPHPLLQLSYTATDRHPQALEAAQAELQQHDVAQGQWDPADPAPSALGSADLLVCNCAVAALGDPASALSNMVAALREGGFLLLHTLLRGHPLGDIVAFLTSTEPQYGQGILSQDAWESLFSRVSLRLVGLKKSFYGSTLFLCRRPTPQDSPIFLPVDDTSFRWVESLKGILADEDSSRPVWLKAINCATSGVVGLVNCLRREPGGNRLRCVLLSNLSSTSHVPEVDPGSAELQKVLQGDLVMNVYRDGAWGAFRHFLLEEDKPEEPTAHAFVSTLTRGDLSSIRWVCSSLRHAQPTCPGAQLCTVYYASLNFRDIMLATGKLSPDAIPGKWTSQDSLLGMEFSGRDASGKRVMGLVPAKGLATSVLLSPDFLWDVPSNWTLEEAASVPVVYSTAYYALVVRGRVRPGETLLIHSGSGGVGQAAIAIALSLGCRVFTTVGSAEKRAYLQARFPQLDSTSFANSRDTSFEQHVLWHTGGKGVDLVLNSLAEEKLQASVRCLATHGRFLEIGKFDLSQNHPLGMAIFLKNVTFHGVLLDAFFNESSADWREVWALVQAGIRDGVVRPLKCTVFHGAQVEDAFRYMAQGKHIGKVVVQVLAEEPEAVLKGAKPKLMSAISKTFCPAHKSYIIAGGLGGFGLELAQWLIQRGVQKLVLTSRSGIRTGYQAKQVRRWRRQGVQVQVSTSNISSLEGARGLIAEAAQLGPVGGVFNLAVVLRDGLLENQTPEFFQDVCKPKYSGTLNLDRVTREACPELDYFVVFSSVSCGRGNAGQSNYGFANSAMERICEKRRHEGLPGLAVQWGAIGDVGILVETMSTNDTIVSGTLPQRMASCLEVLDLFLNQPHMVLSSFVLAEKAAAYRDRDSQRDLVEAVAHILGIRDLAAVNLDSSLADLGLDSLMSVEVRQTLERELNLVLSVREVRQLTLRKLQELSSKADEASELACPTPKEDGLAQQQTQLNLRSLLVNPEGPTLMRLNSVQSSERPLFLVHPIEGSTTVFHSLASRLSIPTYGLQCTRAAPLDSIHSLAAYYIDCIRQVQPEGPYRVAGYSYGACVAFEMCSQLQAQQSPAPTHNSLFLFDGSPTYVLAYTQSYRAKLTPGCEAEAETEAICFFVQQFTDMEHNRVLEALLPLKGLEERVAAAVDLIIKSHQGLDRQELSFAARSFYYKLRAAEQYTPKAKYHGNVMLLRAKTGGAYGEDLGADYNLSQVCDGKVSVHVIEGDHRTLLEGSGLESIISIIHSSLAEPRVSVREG
Chain of Genome polyprotein (P29990 2492-3391 limits assumed): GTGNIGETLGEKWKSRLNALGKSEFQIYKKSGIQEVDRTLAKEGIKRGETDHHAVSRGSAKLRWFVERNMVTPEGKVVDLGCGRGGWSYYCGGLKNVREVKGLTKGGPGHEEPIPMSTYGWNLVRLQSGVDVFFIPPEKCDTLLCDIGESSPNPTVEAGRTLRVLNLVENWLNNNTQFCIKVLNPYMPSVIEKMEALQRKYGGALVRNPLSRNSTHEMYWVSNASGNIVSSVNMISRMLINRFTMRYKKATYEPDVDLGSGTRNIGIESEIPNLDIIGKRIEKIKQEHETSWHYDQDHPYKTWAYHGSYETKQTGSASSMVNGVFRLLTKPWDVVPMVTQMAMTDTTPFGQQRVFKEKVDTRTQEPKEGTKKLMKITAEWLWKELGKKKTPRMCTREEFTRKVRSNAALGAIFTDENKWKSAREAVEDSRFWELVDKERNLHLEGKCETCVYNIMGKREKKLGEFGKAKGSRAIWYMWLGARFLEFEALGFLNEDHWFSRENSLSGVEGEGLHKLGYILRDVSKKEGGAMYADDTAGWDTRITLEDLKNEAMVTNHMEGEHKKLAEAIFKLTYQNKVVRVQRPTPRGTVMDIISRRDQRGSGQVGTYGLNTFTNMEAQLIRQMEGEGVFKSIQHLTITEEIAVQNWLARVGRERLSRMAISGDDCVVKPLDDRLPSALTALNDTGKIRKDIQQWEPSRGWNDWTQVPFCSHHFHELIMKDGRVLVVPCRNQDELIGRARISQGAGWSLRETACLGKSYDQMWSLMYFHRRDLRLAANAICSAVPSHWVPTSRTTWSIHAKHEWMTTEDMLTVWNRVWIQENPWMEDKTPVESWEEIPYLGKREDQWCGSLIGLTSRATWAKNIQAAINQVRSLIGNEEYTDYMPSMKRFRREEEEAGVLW
Chain of Paired box protein Pax-8 (Q06710 whole entry): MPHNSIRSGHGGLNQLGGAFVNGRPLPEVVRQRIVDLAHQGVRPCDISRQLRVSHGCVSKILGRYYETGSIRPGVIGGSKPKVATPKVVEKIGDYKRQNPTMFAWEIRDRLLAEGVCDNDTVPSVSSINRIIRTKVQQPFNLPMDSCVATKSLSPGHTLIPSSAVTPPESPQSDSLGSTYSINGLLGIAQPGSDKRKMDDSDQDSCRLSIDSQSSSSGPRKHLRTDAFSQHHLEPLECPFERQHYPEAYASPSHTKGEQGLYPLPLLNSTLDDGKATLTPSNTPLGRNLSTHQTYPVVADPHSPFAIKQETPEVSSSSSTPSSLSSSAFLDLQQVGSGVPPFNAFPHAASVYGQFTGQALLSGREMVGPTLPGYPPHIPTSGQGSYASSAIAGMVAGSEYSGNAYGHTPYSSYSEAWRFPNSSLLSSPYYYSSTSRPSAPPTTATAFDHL

## CCc1cccc(CC)c1NC(=O)CSc1nnc(CCC(=O)O)c(O)n1
[1]
  IC50: > 66 µM (inactive)
[2]
  IC50: > 66 µM (inactive)

## CCOC(=O)c1sc(=S)n(-c2ccc3c(c2)OCO3)c1N
[1]
  IC50: > 66 µM (inactive)
[2]
  IC50: > 66 µM (inactive)

## O=C(NC(=S)Nc1ccccc1)c1cc([N+](=O)[O-])ccc1N1CCOCC1
Fatty acid synthase [3]
  IC50: 17.2 µM (active)
Fatty acid synthase [4]
  IC50: 8.19 µM (active)

## O=C1COc2ccc(-c3cs/c(=N\c4ccc(OC(F)F)cc4)n3CC3CCCO3)cc2N1 (centres undefined)
[5]
  AC50: 18.6 µM (active)

## CC(C)(C)c1ccc(N2C(=O)CC(C/C=C/c3ccccc3)C2=O)cc1 (centres undefined)
Cells [6]
  EC50: > 350 µM (not active)
Cells [7]
  EC50: > 350 µM (not active)

## O=C(Nc1ccccc1)N(C1=NCCCCS1)c1cccc2ccccc12
Cells [6]
  EC50: > 350 µM (not active)
Cells [7]
  EC50: 43.7 µM (active)

## COC(=O)c1cc(C(=O)NC(C)C2CC3CCC2C3)cc([N+](=O)[O-])c1 (centres undefined)
Fatty acid synthase [4]
  IC50: 11.5 µM (active)

## CCCCCCn1c(=O)c(F)cn(Cc2ccc(OC)c([N+](=O)[O-])c2)c1=O
[8]
  IC50: > 47.1 µM (inactive)
[9]
  EC50: > 53 µM (inactive)
Fatty acid synthase [3]
  IC50: 10.2 µM (active)
Fatty acid synthase [4]
  IC50: 11.3 µM (active)

## CCN(CCCCCN(C)C)Cc1cc2ccccc2o1
Cells [6]
  EC50: > 350 µM (not active)
Cells [7]
  EC50: > 350 µM (not active)

## O=C1NC(=S)N/C1=C/C=C/c1ccccc1
Genome polyprotein
  IC50: 99.8 µM (active)

## C#CCOc1ccc(/C=C2/C(=O)ON=C2C)cc1Cl
Genome polyprotein
  IC50: 97.1 µM (active)

## N#Cc1c(C(F)(F)F)cc(-c2cccs2)nc1SC(C(=O)O)c1ccccc1 (centres undefined)
Fatty acid synthase [3]
  IC50: 4.45 µM (active)
Fatty acid synthase [4]
  IC50: 5.81 µM (active)

## CCC(C)CCCCCCCCCCC(=O)O (centres undefined)
Genome polyprotein
  IC50: 42 µM (active)

## CCOC(=O)c1c(NC(=O)CCC(=O)O)sc2c1CCCCC2
Cells [6]
  EC50: > 350 µM (not active)
Cells [7]
  EC50: 24.5 µM (active)

## CN(C)c1nc2n(c(=O)n1)C(C#N)CS2 (centres undefined)
[1]
  IC50: > 66 µM (inactive)
[2]
  IC50: > 66 µM (inactive)

## CCN(c1ccccc1)S(=O)(=O)c1ccc(Cl)c(NC(=O)CN(C)Cc2cccc(F)c2)c1
[10]
  AC50: 8.78 µM (active)
[11]
  AC50: 6.46 µM (active)

## C[C@@H]1CN([C@H](C)CO)C(=O)c2cc(NC(=O)Nc3ccc(F)cc3)ccc2O[C@@H](C)CCCCO[C@H]1CN(C)S(=O)(=O)c1ccccc1
Paired box protein Pax-8
  AC50: 4.82 µM (active)
[12]
  AC50: 35.3 µM (active)

## COc1ccc(/C=C(/NC(=O)c2ccc([N+](=O)[O-])cc2)C(=O)NC(C)(C)C)cc1
Fatty acid synthase [3]
  IC50: 3.45 µM (active)
Fatty acid synthase [4]
  IC50: 2.56 µM (active)

## O=C1Nc2ccc(Cl)cc2C12Nc1ccccc1-c1nnc(SCc3ccccc3F)nc1O2 (centres undefined)
Genome polyprotein
  IC50: 43.2 µM (active)

## COc1ccccc1-n1cc(-c2ccc([N+](=O)[O-])cc2)nc1S
[1]
  IC50: > 66 µM (inactive)
[2]
  IC50: > 66 µM (inactive)

## O=C(O)c1ccc2c(c1)NC(=O)C(N1CCCC1)S2 (centres undefined)
[1]
  IC50: > 66 µM (inactive)
[2]
  IC50: 55.5 µM (inactive)

## Cc1cc(C)n2cc(CSc3nnc(N)s3)nc2n1
[1]
  IC50: > 66 µM (inactive)
[2]
  IC50: > 66 µM (inactive)

## O=C(NC(Cc1ccc(I)cc1)C(=O)O)c1ccc(Cl)cc1 (centres undefined)
P388/ADR
  GI50: 62.1 µM (inactive)
SN12K1
  GI50: > 100 µM (inactive)
P388
  GI50: 72.4 µM (inactive)

## O=C(O)c1cn2c3c(cc(N4CCN(CCO)CC4)cc3c1=O)SCC2
P388/ADR
  GI50: > 100 µM (inactive)
SN12K1
  GI50: 40.5 µM (inactive)
P388
  GI50: 61.5 µM (inactive)

## CC(C)(C)c1ccc(C(=O)N2CCC2(C)C(=O)Nc2cccc(C#N)c2)cc1 (centres undefined)
Fatty acid synthase [3]
  IC50: 5.47 µM (active)
Fatty acid synthase [4]
  IC50: 7.78 µM (active)

## COc1ccc(C(=O)N/C(=C\c2cn(S(=O)(=O)N(C)C)c3ccccc23)C(=O)NCCCN2CCOCC2)cc1
Fatty acid synthase [3]
  IC50: 8.48 µM (active)
Fatty acid synthase [4]
  IC50: 7.83 µM (active)

## CN1C[C@H](C(=O)N[C@]2(C)O[C@@]3(O)[C@@H]4CCCN4C(=O)[C@H](Cc4ccccc4)N3C2=O)CC2c3cccc4[nH]cc(c34)C[C@H]21 (some centres undefined)
Fatty acid synthase [3]
  IC50: 10.4 µM (active)
Fatty acid synthase [4]
  IC50: 8.09 µM (active)

## CCN(CC)CCNc1ccc(CO)c2sc3ccccc3c(=O)c12 [HYCANTHONE MESYLATE]
P388/ADR
  GI50: 7.35 µM (inactive)
SN12K1
  GI50: 7.43 µM (inactive)
P388
  GI50: 2.94 µM (inactive)

## Cc1ccccc1NC(=O)CSc1nnc(C)c(O)n1
[1]
  IC50: > 66 µM (inactive)
[2]
  IC50: > 66 µM (inactive)

## COc1cc(O)c2c(c1)C(=O)c1cc3c(c(O)c1C2=O)C(OC1OC(C)C(O)C(O)C1OC)C(OC)C(C)(O)C3=O (centres undefined)
P388/ADR
  GI50: 7.59 µM (inactive)
SN12K1
  GI50: 2.42 µM (inactive)
P388
  GI50: 5.66 µM (inactive)

## CCCNC(=O)c1cc(-c2ccco2)on1
[13]
  EC50: 13.7 µM (active)
[14]
  EC50: 59.3 µM (active)
Cells [6]
  EC50: 10 µM (active)
H4
  EC50: 50.4 µM (active)
Cells [7]
  EC50: > 350 µM (not active)

## O=C(COC(=O)CCc1c[nH]c(O)n1)Nc1ccccc1
[1]
  IC50: > 66 µM (inactive)
[2]
  IC50: 44.9 µM (inactive)

## Cc1cccc(C(=O)Oc2ccc(/C=N/NC(=O)c3cc(O)cc(O)c3)cc2)c1
[15]
  IC50: 4.14 µM (active)

## CC(=O)Nc1cccc(NC(=O)CS(=O)(=O)c2cn(CC(=O)N3CCOCC3)c3ccccc23)c1
Cells [6]
  EC50: > 350 µM (not active)
Cells [7]
  EC50: > 350 µM (not active)

## O=S(=O)(O)c1ccc(/N=N\c2ccc(/N=N\c3ccc(/C=C/c4ccc(/N=[N+](/[O-])c5ccc(/C=C/c6ccc(/N=N/c7ccc(/N=N\c8ccc(S(=O)(=O)O)cc8)cc7)cc6S(=O)(=O)O)c(S(=O)(=O)O)c5)cc4S(=O)(=O)O)c(S(=O)(=O)O)c3)cc2)cc1
P388/ADR
  GI50: > 100 µM (inactive)
SN12K1
  GI50: > 100 µM (inactive)
P388
  GI50: > 100 µM (inactive)

## O=C(Nn1c(C2CCCCC2)nc2ccccc2c1=O)c1ccc(Cl)c([N+](=O)[O-])c1
Fatty acid synthase [3]
  IC50: 12.8 µM (active)
Fatty acid synthase [4]
  IC50: 11.2 µM (active)

## Cc1ccc([C@@H]2CC=C(C(=O)O)[C@H](c3ccc(Br)cc3)N2S(=O)(=O)c2ccc(C)cc2)cc1
Genome polyprotein
  IC50: 42.5 µM (active)

## CC[C@@]1(O)C[C@H](OC2CC(N(C)C)C(O)C(C)O2)c2c(cc3c(c2O)C(=O)c2c(O)ccc(O)c2C3=O)[C@H]1C(=O)OC (some centres undefined)
P388/ADR
  GI50: 0.0175 µM (active)
SN12K1
  GI50: 0.0328 µM (active)
P388
  GI50: 0.0175 µM (active)
